# Read-outs that look alike come from different tables or passages of the source.
# Assays:
# B. cereus ATCC 11778 = assay: MIC, twofold serial microdilution; type: cell-based; details: Bacillus cereus, ATCC11778; standard strain, 18 h, 35 °C
# Procedure: (§1) The antimicrobial activity of the compounds was tested on Gram-positive bacteria (Staphylococcus aureus NCTC 4163, Staphylococcus aureus ATCC 25923, Staphylococcus aureus ATCC 6538, Staphylococcus aureus ATCC 29213, Staphylococcus epidermidis ATCC 12228, Staphylococcus epidermidis ATCC 35984, Enterococcus faecalis ATCC 29212, Bacillus subtilis ATCC 6633, Bacillus cereus ATCC 11778, Micrococcus luteus ATCC 9341, Micrococcus luteus ATCC 10240); Gram-negative rods (Escherichia coli ATCC 10538, Escherichia coli ATCC 25922, Escherichia coli NCTC 8196, Proteus vulgaris NCTC 4635, Pseudomonas aeruginosa ATCC 15442, Pseudomonas aeruginosa NCTC 6749, Pseudomonas aeruginosa ATCC 27863, Bordetella bronchiseptica ATCC 4617) and yeasts (Candida albicans ATCC 10231, Candida albicans ATCC 90028, Candida parapsilosis ATCC 22019). Other microorganisms used were obtained from the collection of the Department of Pharmaceutical Microbiology, Medical University of Warsaw, Poland.
# (§2) Antibacterial activity was examined by the disc-diffusion method under standard conditions using Mueller-Hinton II agar medium (Becton Dickinson) according to CLSI (previously NCCLS) guidelines. Antifungal activities were assessed using Mueller-Hinton agar + 2% glucose and 0.5 µg/mL Methylene Blue Dye Medium. Sterile filter paper discs (9 mm diameter, Whatman No 3 chromatography paper) were dripped with tested compound solutions (in DMSO) to load 400 μg of a given compound per disc. Dry discs were placed on the surface of appropriate agar medium. The results (diameter of the growth inhibition zone) were read after 18 h of incubation at 35 °C. Minimal Inhibitory Concentration (MIC) was tested by the twofold serial microdilution method (in 96-well microtiter plates) using Mueller-Hinton Broth medium (Beckton Dickinson) for bacteria or RPMI-1640 medium for Candida species according to CLSI guidelines. The stock solution of tested agent was prepared in DMSO and diluted in sterile water. Concentrations of tested agents ranged from 0.125 to 512 µg/mL. The final inoculum of all studied microorganisms was 10^5 CFU/ mL^−1 (colony forming units per mL). Minimal inhibitory concentrations (the lowest concentration of a tested agent that prevents visible growth of a microorganism) were read after 18 h (bacteria) or 24 h (yeasts) of incubation at 35 °C.
# B. subtilis ATCC 6633 = assay: MIC, twofold serial microdilution; type: cell-based; details: Bacillus subtilis, ATCC6633; standard strain, 18 h, 35 °C
# Procedure: as §1, §2
# E. faecalis ATCC 29212 = assay: MIC, twofold serial microdilution; type: cell-based; details: Enterococcus faecalis, ATCC29212; standard strain, 18 h, 35 °C
# Procedure: as §1, §2
# M. luteus ATCC 10240 = assay: MIC, twofold serial microdilution; type: cell-based; details: Micrococcus luteus, ATCC10240; standard strain, 18 h, 35 °C
# Procedure: as §1, §2
# M. luteus ATCC 9341 = assay: MIC, twofold serial microdilution; type: cell-based; details: Micrococcus luteus, ATCC9341; standard strain, 18 h, 35 °C
# Procedure: as §1, §2
# S. aureus ATCC 25923 = assay: MIC, twofold serial microdilution; type: cell-based; details: Staphylococcus aureus, ATCC25923; standard strain, 18 h, 35 °C
# Procedure: as §1, §2
# S. aureus ATCC 29213 = assay: MIC, twofold serial microdilution; type: cell-based; details: Staphylococcus aureus, ATCC29213; standard strain, 18 h, 35 °C
# Procedure: as §1, §2
# S. aureus ATCC 6538 = assay: MIC, twofold serial microdilution; type: cell-based; details: Staphylococcus aureus, ATCC6538; standard strain, 18 h, 35 °C
# Procedure: as §1, §2
# S. aureus NCTC 4163 = assay: MIC, twofold serial microdilution; type: cell-based; details: Staphylococcus aureus, NCTC4163; standard strain, 18 h, 35 °C
# Procedure: as §1, §2
# [1] = system: S. epidermidis ATCC 12228; assay: MIC, twofold serial microdilution; type: cell-based; details: Staphylococcus epidermidis, ATCC12228; standard strain, 18 h, 35 °C
# Procedure: as §1, §2
# [2] = system: S. epidermidis ATCC 35984; assay: MIC, twofold serial microdilution; type: cell-based; details: Staphylococcus epidermidis, ATCC35984; standard strain, 18 h, 35 °C
# Procedure: as §1, §2
# [3] = system: S. epidermidis MRSE 403/11; assay: MIC, hospital methicillin-resistant strain; type: cell-based; details: Staphylococcus epidermidis
# Procedure: as §1, §2
# [4] = system: S. epidermidis MRSE 404/11; assay: MIC, hospital methicillin-resistant strain; type: cell-based; details: Staphylococcus epidermidis
# Procedure: as §1, §2
# [5] = system: S. epidermidis MRSE 405/11; assay: MIC, hospital methicillin-resistant strain; type: cell-based; details: Staphylococcus epidermidis
# Procedure: as §1, §2
# [6] = system: S. epidermidis MRSE 406/11; assay: MIC, hospital methicillin-resistant strain; type: cell-based; details: Staphylococcus epidermidis
# Procedure: as §1, §2
# [7] = system: S. epidermidis MRSE 407/11; assay: MIC, hospital methicillin-resistant strain; type: cell-based; details: Staphylococcus epidermidis
# Procedure: as §1, §2
# [8] = system: S. epidermidis MRSE 409/11; assay: MIC, hospital methicillin-resistant strain; type: cell-based; details: Staphylococcus epidermidis
# Procedure: as §1, §2
# [9] = system: S. epidermidis MRSE 411/11; assay: MIC, hospital methicillin-resistant strain; type: cell-based; details: Staphylococcus epidermidis
# Procedure: as §1, §2
# [10] = system: S. epidermidis MRSE 412/11; assay: MIC, hospital methicillin-resistant strain; type: cell-based; details: Staphylococcus epidermidis
# Procedure: as §1, §2
# [11] = system: S. epidermidis MRSE 413/11; assay: MIC, hospital methicillin-resistant strain; type: cell-based; details: Staphylococcus epidermidis
# Procedure: as §1, §2
# [12] = system: S. epidermidis MRSE 422/11; assay: MIC, hospital methicillin-resistant strain; type: cell-based; details: Staphylococcus epidermidis
# Procedure: as §1, §2
# [13] = Cytotoxicity against mock-infected MT-4 cells (MTT); type: cell-based, human; details: human, concentration reducing viability of mock-infected MT-4 cells by 50%
# Procedure: (§3) Cell line supporting the multiplication of Human Immunodeficiency Virus type-1 (HIV-1) was the CD4+ human T-cells, derived from human hematological tumors, containing an integrated HTLV-1 genome (MT-4). Cells were purchased from American Type Culture Collection (ATCC). Human Immunodeficiency Virus type-1 (HIV-1) IIIB laboratory strain was obtained from the supernatant of the persistently infected H9/IIIB cells (NIH 1983).
# Exponentially growing MT-4 cells were seeded at an initial density of 1 × 10^5 cells/mL in 96-well plates in RPMI-1640 medium, supplemented with 10% fetal bovine serum (FBS), 100 units/mL penicillin G and 100 μg/mL streptomycin. Cell cultures were then incubated at 37 °C in a humidified, 5% CO2 atmosphere, in the absence or presence of serial dilutions of tested compounds. Cell viability was determined after 96 h at 37 °C by the 3-(4,5-dimethylthiazol-2-yl)-2,5-diphenyl-tetrazolium bromide (MTT) method.
# HIV-1 IIIB = assay: Anti-HIV-1 activity: protection of MT-4 cells from virus-induced cytopathogenicity (MTT); type: cell-based, Human Immunodeficiency Virus type-1; details: Human immunodeficiency virus 1, IIIB, MT4, 96 h, read-out: HIV-1IIIB EC50
# Source text: as §3
# The activity of compounds against HIV-1 was based on inhibition of virus-induced cytopathogenicity in MT-4 cell acutely infected with a multiplicity of infection (m.o.i.) of 0.01. Briefly, 50 μL of RPMI containing 1 × 10^4 MT-4 cells were added to each well of flat-bottom microtiter trays, containing 50 μL of RPMI without or with serial dilutions of test compounds. Then, 20 μL of a HIV-1 suspension containing 100 CCID50 were added. After a 4-day incubation at 37 °C, cell viability was determined by the MTT method.
# staphylococci = assay: MIC against staphylococci; type: cell-based; details: moderate activity
# Procedure: as §1, §2
SMILES,MIC (B. cereus ATCC 11778) [µg/mL],MIC (B. subtilis ATCC 6633) [µg/mL],MIC (M. luteus ATCC 10240) [µg/mL],MIC (M. luteus ATCC 9341) [µg/mL],MIC (S. aureus ATCC 25923) [µg/mL],MIC (S. aureus ATCC 29213) [µg/mL],MIC (S. aureus ATCC 6538) [µg/mL],MIC (S. aureus NCTC 4163) [µg/mL],MIC [1] [µg/mL],MIC [2] [µg/mL],MIC [3] [µg/mL],MIC [4] [µg/mL],MIC [5] [µg/mL],MIC [6] [µg/mL],MIC [7] [µg/mL],MIC [8] [µg/mL],MIC [9] [µg/mL],MIC [10] [µg/mL],MIC [11] [µg/mL],MIC [12] [µg/mL],other results
"O=C(O)c1cn(C2CC2)c2cc(N3CCNCC3)c(F)cc2c1=O [Ciprofloxacin, reference compound]",0.25,< 0.12,2,1,0.5,0.5,0.25,0.25,0.25,0.25,16,64,4,0.5,64,2,4,64,32,4,MIC (E. faecalis ATCC 29212): 1 µg/mL
"O=[N+]([O-])c1cc(NC(=S)Nc2ccccc2)ccc1Cl [Compound 23, 1-(4-chloro-3-nitrophenyl)-3-phenylthiourea]",8,8,8,4,16,16,16,16,16,16,16,16,16,16,16,16,16,32,16,16,"CC50 at 96 h [13]: 23 µM; EC50 (HIV-1 IIIB; 50% protection of MT-4 cells from HIV-1 induced cytopathogenicity, MTT, 4-day incubation): > 23 µM; MIC (E. faecalis ATCC 29212): 16 µg/mL; MIC range towards staphylococci (staphylococci): 8 to 16 µg/mL; melting point: 163 to 165 °C"
"O=[N+]([O-])c1cc(NC(=S)NC2CC3CCC2C3)ccc1Cl (stereo not shown) [Compound 24, 1-bicyclo[2.2.1]hept-2-yl-3-(4-chloro-3-nitrophenyl)thiourea]",8,8,16,32,8,8,8,8,16,16,4,4,4,8,4,4,4,4,4,4,CC50 at 96 h [13]: 16 µM; EC50 (HIV-1 IIIB): > 16 µM; MIC range towards staphylococci (staphylococci): 8 to 16 µg/mL; melting point: 94 to 96 °C
